Like-named read-outs stand apart in the source and are kept apart here.
Legend:
[1] = biological target: isolated recombinant JAK1 kinase domain (Homo sapiens (Human), UniProt P23458); assay: JAK1 enzyme assay (Caliper LabChip, Ki); assay type: biochemical
Method in brief: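 Ki derived via Morrison tight-binding model, ATP-competitive correction applied. Read-out: product/total ratio of a 5-carboxyfluorescein-tagged JAK3 peptide separated on Caliper LabChip after phosphorylation by isolated human JAK1 kinase domain (22 °C, 30 min; EDTA quench, 50 mM final).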

[2] = biological target: isolated recombinant JAK2 kinase domain (Homo sapiens (Human), UniProt O60674); assay: JAK2 enzyme assay (Caliper LabChip, Ki); assay type: biochemical
Method in brief: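 Caliper LabChip readout of phosphorylated product as a fraction of total substrate, a fluorescently N-terminally labelled JAK3-derived peptide. Isolated human JAK kinase domains were incubated 30 min at 22 °C before EDTA quench (50 mM final).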

[3] = system: JAK1-dependent STAT6 phosphorylation downstream of IL-13 stimulation in BEAS-2B human bronchial epithelial cells; assay: JAK1 pathway assay in BEAS-2B cells (IL-13-pSTAT6, MSD); assay type: cell-based; settings: BEAS-2B cells, IL-13 stimulation, read-out: IL-13 p-STAT6 BEAS-2B IC50
Procedure: JAK1 Pathway Assay in Cell Lines was carried out as follows:
Inhibitor potency (EC50) was determined in cell-based assays designed to measure JAK1 dependent STAT phosphorylation.
In one assay approach, TF-1 human erythroleukemia cells obtained from the American Type Culture Collection (ATCC; Manassas, Va.) were used to measure JAK1-dependent STAT6 phosphorylation downstream of IL-13 stimulation. Prior to use in the assays, TF-1 cells were starved of GM-CSF overnight in OptiMEM medium (Life Technologies, Grand Island, N.Y.) supplemented with 0.5% charcoal/dextran stripped fetal bovine serum (FBS), 0.1 mM non-essential amino acids (NEAA), and 1 mM sodium pyruvate. The assays were run in 384-well plates in serum-free OptiMEM medium using 300,000 cells per well. In a second assay approach, BEAS-2B human bronchial epithelial cells obtained from ATCC were plated at 100,000 cells per well of a 96-well plate one day prior to the experiment. The BEAS-2B assay was run in complete growth medium (bronchial epithelial basal medium plus bulletkit; Lonza; Basel, Switzerland).
Test compounds were serially diluted 1:2 in DMSO and then diluted 1:50 in medium just before use. Diluted compounds were added to the cells, for a final DMSO concentration of 0.2%, and incubated for 30 min (for the TF-1 assay) or 1 hr (for the BEAS-2B assay) at 37° C. Then, cells were stimulated with human recombinant cytokine at their respective EC90 concentrations, as previously determined for each individual lot. Cells were stimulated with IL-13 (R&D Systems, Minneapolis, Minn.) for 15 min at 37° C. The TF-1 cell reactions were stopped by the direct addition of 10× lysis buffer (Cell Signaling Technologies, Danvers, Mass.), whereas the BEAS-2B cell incubations were halted by the removal of medium and addition of 1× lysis buffer. The resultant samples were frozen in the plates at −80° C. Compound mediated inhibition of STATE phosphorylation was measured in the cell lysates using MesoScale Discovery (MSD) technology (Gaithersburg, Md.).

isolated recombinant JAK2 kinase domain, sequence (O60674 849-1124): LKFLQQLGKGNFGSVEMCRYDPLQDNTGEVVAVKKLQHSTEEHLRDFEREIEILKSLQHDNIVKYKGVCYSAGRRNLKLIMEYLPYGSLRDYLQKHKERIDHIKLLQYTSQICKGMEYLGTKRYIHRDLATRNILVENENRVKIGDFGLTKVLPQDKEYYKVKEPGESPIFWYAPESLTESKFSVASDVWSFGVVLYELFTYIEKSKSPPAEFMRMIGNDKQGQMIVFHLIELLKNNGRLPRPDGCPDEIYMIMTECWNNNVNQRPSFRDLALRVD
isolated recombinant JAK1 kinase domain, sequence (P23458 875-1153): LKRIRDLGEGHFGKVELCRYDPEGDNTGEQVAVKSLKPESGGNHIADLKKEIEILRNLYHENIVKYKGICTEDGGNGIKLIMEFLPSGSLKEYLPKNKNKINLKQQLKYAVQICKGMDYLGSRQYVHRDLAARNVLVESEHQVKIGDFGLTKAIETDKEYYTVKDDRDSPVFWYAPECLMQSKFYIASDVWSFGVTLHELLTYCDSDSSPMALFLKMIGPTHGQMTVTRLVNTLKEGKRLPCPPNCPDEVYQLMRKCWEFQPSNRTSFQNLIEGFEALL

`N#CCC1(n2cc(C(N)=O)c(NC(=O)C3CC3)n2)CCN(Cc2ccc(-c3ccccc3)cc2)CC1` [Example 6, 1-(1-([1,1′-Biphenyl]-4-ylmethyl)-4-(cyanomethyl)piperidin-4-yl)-3-(cyclopropanecarboxamido)-1H-pyrazole-4-carboxamide] gave a Ki ([1]; read-out: JAK1 Ki) of 0.8 nM, a Ki [2] of 3.6 nM and an IC50 ([3]; Homo sapiens, BEAS-2B) of 31 nM.

In the case of `N#CCC1(n2cc(C(N)=O)c(NC(=O)C3CC3C#N)n2)CCN(Cc2ccc(-c3ccccc3)cc2F)CC1F` (stereo not drawn) [Example 219, 3-[(2-cyanocyclopropanecarbonyl)amino]-1-[4-(cyanomethyl)-3-fluoro-1-[(2-fluoro-4-phenyl-phenyl)methyl]-4-piperidyl]pyrazole-4-carboxamide], the Ki ([1]; read-out: JAK1 Ki) is reported as 1.7 nM, the Ki [2] is reported as 3.6 nM and the IC50 [3] is reported as 68 nM.

`Cc1c(CN2CCC(CC#N)(n3cc(C(N)=O)c(NC(=O)C4CC4C#N)n3)C(F)C2)ccc(-c2ccccc2)c1O` (stereo not drawn) [Example 250, 3-[(2-cyanocyclopropanecarbonyl)amino]-1-[4-(cyanomethyl)-3-fluoro-1-[(3-hydroxy-2-methyl-4-phenyl-phenyl)methyl]-4-piperidyl]pyrazole-4-carboxamide; formic acid] gave a Ki ([1]; read-out: JAK1 Ki) of 0.31 nM, a Ki [2] of 0.84 nM and an IC50 ([3]; Homo sapiens, BEAS-2B) of 80 nM.

`CCOC(=O)Nc1nn(C2(CC#N)CCN(Cc3ccc(-n4nccn4)cc3)CC2F)cc1C(N)=O` (stereo not drawn) [Example 225, ethyl N-[4-carbamoyl-1-[4-(cyanomethyl)-3-fluoro-1-[[4-(triazol-2-yl)phenyl]methyl]-4-piperidyl]pyrazol-3-yl]carbamate] gave a Ki ([1]; read-out: JAK1 Ki) of 0.62 nM, a Ki [2] of 1.3 nM and an IC50 ([3]; Homo sapiens, BEAS-2B) of 44 nM.

Work on `N#CC[C@]1(n2cc(C(N)=O)c(NC(=O)C3CC3)n2)CCN(Cc2ccc(-c3ccccc3)cc2)C[C@H]1F` (single isomer, unassigned) [Example 14] yielded a Ki ([1]; read-out: JAK1 Ki) of 0.2 nM, a Ki [2] of 0.4 nM and an IC50 ([3]; Homo sapiens, BEAS-2B) of 16 nM.

`COC(=O)Nc1nn(C2(CC#N)CCN(Cc3ccc(C4=CCCCC4)nc3F)CC2F)cc1C(N)=O` (stereo not drawn) [Example 264, methyl N-[4-carbamoyl-1-[4-(cyanomethyl)-1-[[6-(cyclohexen-1-yl)-2-fluoro-3-pyridyl]methyl]-3-fluoro-4-piperidyl]pyrazol-3-yl]carbamate] showed a Ki ([1]; read-out: JAK1 Ki) of 0.79 nM, a Ki [2] of 1.4 nM and an IC50 ([3]; Homo sapiens, BEAS-2B) of 88 nM.

Work on `CCC1(n2cc(C(N)=O)c(Nc3ccc(S(=O)(=O)C(F)F)cc3)n2)CCN(C(=O)CC#N)CC1` [Example 304] yielded a Ki ([1]; read-out: JAK1 Ki) of 0.49 nM, a Ki [2] of 2.8 nM and an IC50 ([3]; Homo sapiens, BEAS-2B) of 220 nM.

For `COC(=O)Nc1nn(C2(CC#N)CCN(Cc3ccc(-c4ncco4)cc3)CC2F)cc1C(N)=O` (stereo not drawn) [Example 278, methyl N-[4-carbamoyl-1-[4-(cyanomethyl)-3-fluoro-1-[(4-oxazol-2-ylphenyl)methyl]-4-piperidyl]pyrazol-3-yl]carbamate], the Ki ([1]; read-out: JAK1 Ki) was 1.1 nM, the Ki [2] was 1.3 nM and the IC50 ([3]; Homo sapiens, BEAS-2B) was 45 nM.

For `COC(=O)Nc1nn(C2(CC#N)CCN(Cc3cc(C(F)F)ccc3F)CC2F)cc1C(N)=O` (stereo not drawn) [Example 283, methyl N-[4-carbamoyl-1-[4-(cyanomethyl)-1-[[5-(difluoromethyl)-2-fluoro-phenyl]methyl]-3-fluoro-4-piperidyl]pyrazol-3-yl]carbamate], the Ki ([1]; read-out: JAK1 Ki) was 1.4 nM, the Ki [2] was 2.9 nM and the IC50 ([3]; Homo sapiens, BEAS-2B) was 77 nM.

`N#CCC1(n2cc(C(N)=O)c(NC(=O)C3CC3)n2)CCN(Cc2ccc(-c3cccc(F)c3)c(O)c2)CC1` [Example 139, 1-[4-(cyanomethyl)-1-[[4-(3-fluorophenyl)-3-hydroxy-phenyl]methyl]-4-piperidyl]-3-(cyclopropanecarbonylamino) pyrazole-4-carboxamide] showed a Ki ([1]; read-out: JAK1 Ki) of 0.4 nM, a Ki [2] of 1 nM and an IC50 ([3]; Homo sapiens, BEAS-2B) of 104 nM.

`N#CCC1(n2cc(C(N)=O)c(NC(=O)C3CC3C#N)n2)CCN(Cc2ccc(-c3ccccc3)cc2)CC1F` (stereo not drawn) [Example 192, 3-[(2-cyanocyclopropanecarbonyl)amino]-1-[4-(cyanomethyl)-3-fluoro-1-[(4-phenylphenyl)methyl]-4-piperidyl]pyrazole-4-carboxamide] was tested, and the Ki ([1]; read-out: JAK1 Ki) was 0.35 nM, the Ki [2] was 1.2 nM and the IC50 ([3]; Homo sapiens, BEAS-2B) was 28 nM.

`Cn1ccc(-c2ccc(CN3CCC(CC#N)(n4cc(C(N)=O)c(NC(=O)C5CC5)n4)CC3)cc2)n1` [Example 82] was tested, and the Ki ([1]; read-out: JAK1 Ki) was 4.9 nM, the Ki [2] was 14.3 nM and the IC50 ([3]; Homo sapiens, BEAS-2B) was 688 nM.

For `CCc1ccc(C2(F)CN(C3CCC(CC#N)(n4cc(C(N)=O)c(NC(=O)C5CC5)n4)CC3)C2)cc1` (stereo not drawn) [Example 265, 1-[1-(cyanomethyl)-4-[3-(4-ethylphenyl)-3-fluoro-azetidin-1-yl]cyclohexyl]-3-(cyclopropanecarbonylamino) pyrazole-4-carboxamide], the Ki ([1]; read-out: JAK1 Ki) was 1.1 nM, the Ki [2] was 4.2 nM and the IC50 ([3]; Homo sapiens, BEAS-2B) was 88 nM.

`CN(C)C(=O)c1cccc(-c2ccc(CN3CCC(CC#N)(n4cc(C(N)=O)c(NC(=O)C5CC5)n4)CC3)cc2)c1` [Example 145, 1-[4-(cyanomethyl)-1-[[4-[3-(dimethylcarbamoyl)phenyl]phenyl]methyl]-4-piperidyl]-3-(cyclopropanecarbonylamino) pyrazole-4-carboxamide] was tested, and the Ki ([1]; read-out: JAK1 Ki) was 3.1 nM, the Ki [2] was 15.5 nM and the IC50 ([3]; Homo sapiens, BEAS-2B) was > 1000 nM.

`C#Cc1ccc(NC2CCC(CC#N)(n3cc(C(N)=O)c(NC(=O)C4CC4)n3)CC2)cc1` (stereo not drawn) [Example 279, 1-[1-(cyanomethyl)-4-(4-ethynylanilino)cyclohexyl]-3-(cyclopropanecarbonylamino) pyrazole-4-carboxamide] gave a Ki ([1]; read-out: JAK1 Ki) of 1.2 nM, a Ki [2] of 14 nM and an IC50 ([3]; Homo sapiens, BEAS-2B) of 92 nM.

Compound `N#CCC1(n2cc(C(N)=O)c(NC(=O)C3CC3)n2)CCN(Cc2ccc(-c3ccc(Cl)s3)cc2)CC1` [Example 148, 1-[1-[[4-(5-chloro-2-thienyl)phenyl]methyl]-4-(cyanomethyl)-4-piperidyl]-3-(cyclopropanecarbonylamino) pyrazole-4-carboxamide] has a Ki ([1]; read-out: JAK1 Ki) of 1.8 nM, a Ki [2] of 21.2 nM and an IC50 ([3]; Homo sapiens, BEAS-2B) of 48 nM.

With `CC#Cc1ccc(CN2CCC(CC#N)(n3cc(C(N)=O)c(NC(=O)OC)n3)C(F)C2)cc1` (stereo not drawn) [Example 298, Methyl (4-carbamoyl-1-(4-(cyanomethyl)-3-fluoro-1-(4-(prop-1-yn-1-yl)benzyl)piperidin-4-yl)-1H-pyrazol-3-yl)carbamate] the Ki ([1]; read-out: JAK1 Ki) was 0.6 nM, the Ki [2] was 0.58 nM and the IC50 ([3]; Homo sapiens, BEAS-2B) was 29 nM.

`CCC1(n2cc(C(N)=O)c(Nc3ccc(S(=O)(=O)C(F)F)cc3)n2)CCN(Cc2cc(O)ccc2F)CC1` [Example 301, 3-((4-((Difluoromethyl)sulfonyl)phenyl)amino)-1-(4-ethyl-1-(2-fluoro-5-hydroxybenzyl)piperidin-4-yl)-1H-pyrazole-4-carboxamide] showed a Ki ([1]; read-out: JAK1 Ki) of 1.5 nM, a Ki [2] of 2 nM and an IC50 ([3]; Homo sapiens, BEAS-2B) of 100 nM.

`C#Cc1ccc(CN2CCC(CC#N)(n3cc(C(N)=O)c(NC(=O)C4CC4)n3)C(F)C2)c(Cl)c1` (stereo not drawn) [Example 280, 1-[1-[(2-chloro-4-ethynyl-phenyl)methyl]-4-(cyanomethyl)-3-fluoro-4-piperidyl]-3-(cyclopropanecarbonylamino) pyrazole-4-carboxamide] was tested, and the Ki ([1]; read-out: JAK1 Ki) was 0.3 nM, the Ki [2] was 0.4 nM and the IC50 ([3]; Homo sapiens, BEAS-2B) was 16 nM.

Compound `N#CCC1(n2cc(C(N)=O)c(NC(=O)C3CC3)n2)CCN(Cc2ccc(-c3ccccc3)c(Cl)c2)CC1` [Example 163, 1-[1-[(3-chloro-4-phenyl-phenyl)methyl]-4-(cyanomethyl)-4-piperidyl]-3-(cyclopropanecarbonylamino) pyrazole-4-carboxamide] has a Ki ([1]; read-out: JAK1 Ki) of 2.1 nM, a Ki [2] of 18.5 nM and an IC50 ([3]; Homo sapiens, BEAS-2B) of 103 nM.

`N#CCC1(n2cc(C(N)=O)c(NC(=O)C3CC3)n2)CCN(C(=O)OCC(F)(F)F)CC1` [Example 167, 2,2,2-trifluoroethyl 4-[4-carbamoyl-3-(cyclopropanecarbonylamino)pyrazol-1-yl]-4-(cyanomethyl)piperidine-1-carboxylate] gave a Ki ([1]; read-out: JAK1 Ki) of 2.3 nM, a Ki [2] of 28.7 nM and an IC50 ([3]; Homo sapiens, BEAS-2B) of 833 nM.

With `N#CC[C@]1(n2cc(C(N)=O)c(NC(=O)C3CC3)n2)CC[C@H](NCC(F)(F)F)CC1` (single isomer, unassigned) [Example 2] the Ki [1] was 1.2 nM, the Ki [2] was 6.1 nM and the IC50 ([3]; Homo sapiens, BEAS-2B) was 373 nM.

— patent US11731943B2, “Therapeutic compounds, compositions and methods of use thereof” (priority 2016, dated 2023)
